Assay results taken from patent US20230114728A1 (Venatorx Pharmaceuticals, Inc., priority 2019, published 2023).
In brackets after ≈: the same amount, converted by molar mass.

Tests used:
E. coli K12 PBP3 = target: T1, E. coli K12 PBP3 (Escherichia coli, UniProt P0AD68); assay: biochemical; format: binding
T1 construct: made in house
Outline: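 A. baumannii PBP2 (2.5 μM) and PBP3 (0.2 μM) were run in 25 mM Tris pH 8.0 buffer with Tween 20; E. coli PBP3 (1.5 μM) and N. gonorrhoeae PBP2 ([…]) in 50 mM Hepes pH 8.0 buffer.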

N. gonorrhoeae WHO Q = assay: Liquid broth MIC in Fastidious broth; format: cell-based; conditions: Neisseria gonorrhoeae, read-out: Minimum Inhibitory Concentration, N. gonorrhoeae WHO Q
Outline: (§1)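 Mosaic-PBP2 strains grown 24 h on chocolate agar (36 °C, 5% CO2), then direct-suspended in saline and OD600-adjusted. Twofold compound dilutions in Fastidious broth inoculated at 5×10^5 CFU/mL and incubated ~24 h at 36 °C, 5% CO2. MIC read visually as lowest concentration with <10% growth versus full-growth wells.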

[1] = tested on: N. gonorrhoeae ATCC 49226; assay: Liquid broth MIC in Fastidious broth; format: cell-based; conditions: Neisseria gonorrhoeae, ATCC49226; N. gonorrhoeae strain ATCC 49226; Fastidious broth; read-out: Minimum Inhibitory Concentration, N. gonorrhoeae ATCC 49226
Outline: (§2)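 Colonies were swabbed from chocolate agar after 24 h growth and standardised by optical density at 600 nm. Compounds were serially diluted twofold in Fastidious broth, and bacteria added to give 5×10^5 CFU/mL. After about 24 h at 36 °C in 5% CO2, the lowest concentration allowing under 10% growth was taken as MIC.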

N. gonorrhoeae WHO K = assay: Liquid broth MIC in Fastidious broth; format: cell-based; conditions: Neisseria gonorrhoeae, read-out: Minimum Inhibitory Concentration, N. gonorrhoeae WHO K
Outline: as §1

N. gonorrhoeae WHO G = assay: Liquid broth MIC in Fastidious broth; format: cell-based; conditions: Neisseria gonorrhoeae; N. gonorrhoeae strain WHO G; Fastidious broth; read-out: Minimum Inhibitory Concentration, N. gonorrhoeae WHO G
Outline: as §2

N. gonorrhoeae FA1090 = assay: Liquid broth MIC in Fastidious broth; format: cell-based; conditions: Neisseria gonorrhoeae; N. gonorrhoeae strain FA1090; Fastidious broth; read-out: Minimum Inhibitory Concentration, N. gonorrhoeae FA1090
Outline: as §2

N. gonorrhoeae WHO Z = assay: Liquid broth MIC in Fastidious broth; format: cell-based; conditions: Neisseria gonorrhoeae, read-out: Minimum Inhibitory Concentration, N. gonorrhoeae WHO Z
Outline: as §1

N. gonorrhoeae WHO L = assay: Liquid broth MIC in Fastidious broth; format: cell-based; conditions: Neisseria gonorrhoeae; N. gonorrhoeae strain WHO L; Fastidious broth; read-out: Minimum Inhibitory Concentration, N. gonorrhoeae WHO L
Outline: as §2

N. gonorrhoeae H041 = assay: Liquid broth MIC in Fastidious broth; format: cell-based; conditions: Neisseria gonorrhoeae, H041, read-out: Minimum Inhibitory Concentration, N. gonorrhoeae H041
Outline: as §1

P. aeruginosa PBP3 = target: T2, P. aeruginosa PBP3 (Pseudomonas aeruginosa, UniProt G3XD46); assay: Bocillin-FL fluorescence polarization competition binding assay, P. aeruginosa PBP3; conditions: fluorescence polarization competition binding assay using Bocillin-FL
T2 construct: made in house
Outline: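 Inhibitor competition with Bocillin-FL for P. aeruginosa PBP3 was followed by fluorescence polarization on a Cytation3 (BioTek) reader, using g-factor 0.96, 490 nm excitation and 520 nm emission. The enzyme was at 0.75 μM and the probe at 0.1 μM in Hepes/NaCl/glycerol buffer, 80 μl per well. FP was recorded immediately after probe addition for up to 60 minutes. Potency was expressed as EC50, the concentration that reduces bound probe by 50%.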

T2 sequence (G3XD46 whole entry): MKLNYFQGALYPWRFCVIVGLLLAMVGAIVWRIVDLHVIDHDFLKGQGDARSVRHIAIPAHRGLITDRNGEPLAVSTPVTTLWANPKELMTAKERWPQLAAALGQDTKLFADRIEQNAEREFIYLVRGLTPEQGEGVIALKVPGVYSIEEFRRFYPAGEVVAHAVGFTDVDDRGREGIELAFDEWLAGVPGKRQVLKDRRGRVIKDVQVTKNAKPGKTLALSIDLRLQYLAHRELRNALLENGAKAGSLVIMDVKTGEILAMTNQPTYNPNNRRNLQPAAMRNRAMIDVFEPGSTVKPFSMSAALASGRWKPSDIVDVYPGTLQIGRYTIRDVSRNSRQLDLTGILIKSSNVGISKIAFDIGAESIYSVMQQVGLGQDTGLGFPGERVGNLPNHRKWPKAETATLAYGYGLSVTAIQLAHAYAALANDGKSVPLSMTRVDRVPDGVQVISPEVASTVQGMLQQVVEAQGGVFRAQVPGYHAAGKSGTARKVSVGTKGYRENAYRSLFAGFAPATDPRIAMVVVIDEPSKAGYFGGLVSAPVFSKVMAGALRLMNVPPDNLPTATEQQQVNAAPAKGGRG
T1 sequence (P0AD68 1-577): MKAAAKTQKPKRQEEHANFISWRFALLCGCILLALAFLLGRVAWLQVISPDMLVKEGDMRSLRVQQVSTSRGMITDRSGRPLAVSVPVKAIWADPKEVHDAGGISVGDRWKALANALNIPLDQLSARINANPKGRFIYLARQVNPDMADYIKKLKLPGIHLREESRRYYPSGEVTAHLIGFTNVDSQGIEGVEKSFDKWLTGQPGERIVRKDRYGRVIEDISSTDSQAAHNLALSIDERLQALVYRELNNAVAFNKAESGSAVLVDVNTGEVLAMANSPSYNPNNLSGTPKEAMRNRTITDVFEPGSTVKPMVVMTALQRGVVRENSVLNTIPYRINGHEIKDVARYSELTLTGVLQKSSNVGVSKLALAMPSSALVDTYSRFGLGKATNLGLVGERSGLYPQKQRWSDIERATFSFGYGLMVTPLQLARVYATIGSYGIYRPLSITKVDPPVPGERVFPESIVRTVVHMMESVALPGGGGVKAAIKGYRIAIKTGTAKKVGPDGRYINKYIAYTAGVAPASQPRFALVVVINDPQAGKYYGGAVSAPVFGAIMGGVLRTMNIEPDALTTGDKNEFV

SMILES | EC50 (E. coli K12 PBP3) [µM] | MIC (N. gonorrhoeae WHO Q) [µg/mL] | MIC [1] [µg/mL] | MIC (N. gonorrhoeae WHO K) [µg/mL] | MIC (N. gonorrhoeae WHO G) [µg/mL] | MIC (N. gonorrhoeae FA1090) [µg/mL] | MIC (N. gonorrhoeae WHO Z) [µg/mL] | MIC (N. gonorrhoeae WHO L) [µg/mL] | MIC (N. gonorrhoeae H041) [µg/mL] | P. aeruginosa PBP3 Potency (P. aeruginosa PBP3)
NC1(CN2CCN(C(=O)N[C@@H](C(=O)N[C@H]3Cc4ccc(F)c(C(=O)O)c4OB3O)c3cc(F)c(O)c(O)c3Cl)C(=O)C2=O)CC1 (single isomer, unassigned) [Example 133] | 30 to 500 | > 64 | > 64 | > 64 | 16 to 32 (≈ 24.5 to 49.1 µM) | 16 to 32 (≈ 24.5 to 49.1 µM) | > 64 | > 64 | > 64 | D (D represents a potency <10 μM)
NC1(CN2CCN(C(=O)N[C@@H](C(=O)N[C@H]3Cc4ccc(F)c(C(=O)O)c4OB3O)c3c(F)cc(O)c(O)c3Cl)C(=O)C2=O)CC1 (single isomer, unassigned) [Example 134] | 30 to 500 | > 64 | > 64 | > 64 | > 64 | 16 to 32 (≈ 24.5 to 49.1 µM) | > 64 | > 64 | > 64 | D (D represents a potency <10 μM)
CS(=O)(=O)N1CCN(C(=O)N[C@@H](C(=O)N[C@H]2Cc3cccc(C(=O)O)c3OB2O)c2c(F)cc(O)cc2F)C1=O (single isomer, unassigned) [Example 135] | < 30 | 16 to 32 (≈ 27.5 to 55 µM) | 4 to 8 (≈ 6.87 to 13.7 µM) | > 64 | 1 to 2 (≈ 1.72 to 3.43 µM) | < 0.125 | 16 to 32 (≈ 27.5 to 55 µM) | 16 to 32 (≈ 27.5 to 55 µM) | > 64 | D (D represents a potency <10 μM)
CS(=O)(=O)N1CCN(C(=O)N[C@H](C(=O)N[C@H]2Cc3cccc(C(=O)O)c3OB2O)c2c(F)cc(O)cc2F)C1=O (single isomer, unassigned) [Example 136] | 30 to 500 | > 64 | > 64 | > 64 | 16 to 32 (≈ 27.5 to 55 µM) | 1 to 2 (≈ 1.72 to 3.43 µM) | > 64 | > 64 | > 64 | B (B represents a potency between 30 μM and 500 μM inclusive)
CCN1CCN(C(=O)N[C@H](C(=O)N[C@H]2Cc3cccc(C(=O)O)c3OB2O)c2ccc(C(=O)O)c(F)c2F)C(=O)C1=O (single isomer, unassigned) [Example 139] | < 30 | 4 to 8 (≈ 6.8 to 13.6 µM) | 1 to 2 (≈ 1.7 to 3.4 µM) | 4 to 8 (≈ 6.8 to 13.6 µM) | 1 to 2 (≈ 1.7 to 3.4 µM) | < 0.125 | 1 to 2 (≈ 1.7 to 3.4 µM) | 4 to 8 (≈ 6.8 to 13.6 µM) | 4 to 8 (≈ 6.8 to 13.6 µM) | D (D represents a potency <10 μM)
CCN1CCN(C(=O)N[C@@H](C(=O)N[C@H]2Cc3cccc(C(=O)O)c3OB2O)c2ccc(C(=O)O)c(F)c2F)C(=O)C1=O (single isomer, unassigned) [Example 140] | < 30 | 1 to 2 (≈ 1.7 to 3.4 µM) | 0.25 to 0.5 (≈ 0.425 to 0.85 µM) | 1 to 2 (≈ 1.7 to 3.4 µM) | 0.25 to 0.5 (≈ 0.425 to 0.85 µM) | < 0.125 | 0.25 to 0.5 (≈ 0.425 to 0.85 µM) | 1 to 2 (≈ 1.7 to 3.4 µM) | 1 to 2 (≈ 1.7 to 3.4 µM) | D (D represents a potency <10 μM)
CCN1CCN(C(=O)N[C@H](C(=O)N[C@H]2Cc3cccc(C(=O)O)c3OB2O)c2ccc(C(=O)O)cc2O)C(=O)C1=O (single isomer, unassigned) [Example 143] | < 30 | > 64 | 16 to 32 (≈ 28.2 to 56.3 µM) | > 64 | 4 to 8 (≈ 7.04 to 14.1 µM) | 1 to 2 (≈ 1.76 to 3.52 µM) | 16 to 32 (≈ 28.2 to 56.3 µM) | > 64 | > 64 | B (B represents a potency between 30 μM and 500 μM inclusive)
CCN1CCN(C(=O)N[C@@H](C(=O)N[C@H]2Cc3cccc(C(=O)O)c3OB2O)c2ccc(C(=O)O)cc2O)C(=O)C1=O (single isomer, unassigned) [Example 144] | < 30 | 4 to 8 (≈ 7.04 to 14.1 µM) | 1 to 2 (≈ 1.76 to 3.52 µM) | 16 to 32 (≈ 28.2 to 56.3 µM) | 0.25 to 0.5 (≈ 0.44 to 0.88 µM) | < 0.125 | 4 to 8 (≈ 7.04 to 14.1 µM) | 4 to 8 (≈ 7.04 to 14.1 µM) | 16 to 32 (≈ 28.2 to 56.3 µM) | D (D represents a potency <10 μM)
CCN1CCN(C(=O)N[C@@H](C(=O)N[C@H]2Cc3cccc(C(=O)O)c3OB2O)c2ccc(C(=O)O)c(F)c2)C(=O)C1=O (single isomer, unassigned) [Example 146] | < 30 | 1 to 2 (≈ 1.75 to 3.51 µM) | 1 to 2 (≈ 1.75 to 3.51 µM) | 1 to 2 (≈ 1.75 to 3.51 µM) | 0.25 to 0.5 (≈ 0.438 to 0.877 µM) | < 0.125 | 1 to 2 (≈ 1.75 to 3.51 µM) | 4 to 8 (≈ 7.01 to 14 µM) | 4 to 8 (≈ 7.01 to 14 µM) | D (D represents a potency <10 μM)
CCN1CCN(C(=O)N[C@H](C(=O)N[C@H]2Cc3cccc(C(=O)O)c3OB2O)c2ccc(C(=O)O)c(F)c2)C(=O)C1=O (single isomer, unassigned) [Example 147] | < 30 | 0.25 to 0.5 (≈ 0.438 to 0.877 µM) | 1 to 2 (≈ 1.75 to 3.51 µM) | 0.25 to 0.5 (≈ 0.438 to 0.877 µM) | 0.25 to 0.5 (≈ 0.438 to 0.877 µM) | < 0.125 | 0.25 to 0.5 (≈ 0.438 to 0.877 µM) | 4 to 8 (≈ 7.01 to 14 µM) | 1 to 2 (≈ 1.75 to 3.51 µM) | D (D represents a potency <10 μM)
CCN1CCN(C(=O)N[C@@H](C(=O)N[C@H]2Cc3cccc(C(=O)O)c3OB2O)c2cc(F)c(C(=O)O)cc2Cl)C(=O)C1=O (single isomer, unassigned) [Example 148] | < 30 | 4 to 8 (≈ 6.61 to 13.2 µM) | 4 to 8 (≈ 6.61 to 13.2 µM) | 4 to 8 (≈ 6.61 to 13.2 µM) | 1 to 2 (≈ 1.65 to 3.31 µM) | 0.25 to 0.5 (≈ 0.413 to 0.827 µM) | 4 to 8 (≈ 6.61 to 13.2 µM) | > 64 | 16 to 32 (≈ 26.5 to 52.9 µM) | D (D represents a potency <10 μM)
CCN1CCN(C(=O)N[C@H](C(=O)N[C@H]2Cc3cccc(C(=O)O)c3OB2O)c2cc(F)c(C(=O)O)cc2Cl)C(=O)C1=O (single isomer, unassigned) [Example 149] | 30 to 500 | > 64 | > 64 | > 64 | 16 to 32 (≈ 26.5 to 52.9 µM) | 4 to 8 (≈ 6.61 to 13.2 µM) | 16 to 32 (≈ 26.5 to 52.9 µM) | > 64 | > 64 | C (C represents a potency between 10 and 30 μM)
CCN1CCN(C(=O)N[C@@H](C(=O)N[C@H]2Cc3cccc(C(=O)O)c3OB2O)c2ccc(C(=O)O)cc2Cl)C(=O)C1=O (single isomer, unassigned) [Example 151] | < 30 | 4 to 8 (≈ 6.82 to 13.6 µM) | 4 to 8 (≈ 6.82 to 13.6 µM) | 4 to 8 (≈ 6.82 to 13.6 µM) | 1 to 2 (≈ 1.7 to 3.41 µM) | 0.25 to 0.5 (≈ 0.426 to 0.852 µM) | 1 to 2 (≈ 1.7 to 3.41 µM) | 16 to 32 (≈ 27.3 to 54.5 µM) | 4 to 8 (≈ 6.82 to 13.6 µM) | D (D represents a potency <10 μM)
CCN1CCN(C(=O)N[C@H](C(=O)N[C@H]2Cc3cccc(C(=O)O)c3OB2O)c2ccc(C(=O)O)cc2Cl)C(=O)C1=O (single isomer, unassigned) [Example 152] | 30 to 500 | 16 to 32 (≈ 27.3 to 54.5 µM) | 16 to 32 (≈ 27.3 to 54.5 µM) | 16 to 32 (≈ 27.3 to 54.5 µM) | 4 to 8 (≈ 6.82 to 13.6 µM) | 1 to 2 (≈ 1.7 to 3.41 µM) | 4 to 8 (≈ 6.82 to 13.6 µM) | > 64 | 16 to 32 (≈ 27.3 to 54.5 µM) | D (D represents a potency <10 μM)
CCN1CCN(C(=O)N[C@@H](C(=O)N[C@H]2Cc3cccc(C(=O)O)c3OB2O)c2ccc(C(=O)O)c(Cl)c2)C(=O)C1=O (single isomer, unassigned) [Example 154] | < 30 | 1 to 2 (≈ 1.7 to 3.41 µM) | 1 to 2 (≈ 1.7 to 3.41 µM) | 1 to 2 (≈ 1.7 to 3.41 µM) | 0.25 to 0.5 (≈ 0.426 to 0.852 µM) | < 0.125 | 0.25 to 0.5 (≈ 0.426 to 0.852 µM) | 4 to 8 (≈ 6.82 to 13.6 µM) | 1 to 2 (≈ 1.7 to 3.41 µM) | D (D represents a potency <10 μM)
